According to ChEMBL document CHEMBL1201862, “PubChem BioAssay data set” (2004):
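Method: 48-hour compound exposure of cells in 96-well plates, five concentrations, linear interpolation of endpoints. GI50 is the concentration that inhibits growth by half.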 Calls of active or inactive are those of the source. Rule as the data show it: active = GI50 up to about 1.1 µM and inactive = higher.

Key:
Assay in all cases: NCI-60 cell line screen, 48 h
KM12 = tested on: KM12
NCI-H23 = tested on: NCI-H23
SNB-19 = tested on: SNB-19
SNB-75 = tested on: SNB-75
OVCAR-3 = tested on: OVCAR-3
HCT-15 = tested on: HCT-15
MDA-N = tested on: MDA-N
SK-MEL-28 = tested on: SK-MEL-28
NCI-H460 = tested on: NCI-H460
K562 = tested on: K562
HT-29 = tested on: HT-29
SF-268 = tested on: SF-268
CCRF-CEM = tested on: CCRF-CEM
SK-OV-3 = tested on: SK-OV-3
UACC-257 = tested on: UACC-257
NCI-H522 = tested on: NCI-H522
RXF 393 = tested on: RXF 393
RPMI-8226 = tested on: RPMI-8226
BT-549 = tested on: BT-549
MCF7 = tested on: MCF7

Row | SMILES | GI50 (KM12) | GI50 (NCI-H23) | GI50 (SNB-19) | GI50 (SNB-75) | GI50 (OVCAR-3) | GI50 (HCT-15) [µM] | GI50 (MDA-N) | GI50 (SK-MEL-28) | GI50 (NCI-H460) | GI50 (K562) | GI50 (HT-29) | GI50 (SF-268) | GI50 (CCRF-CEM) | GI50 (SK-OV-3) | GI50 (UACC-257) | GI50 (NCI-H522) | GI50 (RXF 393) | GI50 (RPMI-8226) | GI50 (BT-549) | GI50 (MCF7)
1 | CCOC(=O)NC1CN2CCC1CC2 (centres undefined) | > 100 µM (inactive) | > 100 µM (inactive) | > 100 µM (inactive) | > 100 µM (inactive) | > 100 µM (inactive) | > 100 | > 100 µM (inactive) | > 100 µM (inactive) | > 100 µM (inactive) | > 100 µM (inactive) | > 100 µM (inactive) | > 100 µM (inactive) | > 100 µM (inactive) | > 100 µM (inactive) | > 100 µM (inactive) | > 100 µM (inactive) | > 100 µM (inactive) | > 100 µM (inactive) | – | –
2 | N#C/C1=C(\N)CCSSSC1 | 51.1 µM (inactive) | 32.1 µM (inactive) | 37.2 µM (inactive) | 42.3 µM (inactive) | 46.3 µM (inactive) | 27.9 | – | 43.6 µM (inactive) | 23.6 µM (inactive) | 55.3 µM (inactive) | 31 µM (inactive) | 42.9 µM (inactive) | 48.9 µM (inactive) | 52.5 µM (inactive) | 35.8 µM (inactive) | 20.9 µM (inactive) | 58.3 µM (inactive) | 44.8 µM (inactive) | – | –
3 | CSc1ccc(/C=C2\CNC/C(=C\c3ccc(SC)cc3)C2=O)cc1 | – | – | 26.7 µM (inactive) | 15 µM (inactive) | 36.8 µM (inactive) | > 179 | > 100 µM (inactive) | > 209 µM (inactive) | > 119 µM (inactive) | > 371 µM (inactive) | – | 13.4 µM (inactive) | – | 96.8 µM (inactive) | > 143 µM (inactive) | 56.4 µM (inactive) | 25.9 µM (inactive) | > 79.8 µM (inactive) | > 371 µM (inactive) | –
4 | CCC#CCCCCCCCCC(F)C(=O)O (centres undefined) | > 100 µM (inactive) | > 100 µM (inactive) | > 100 µM (inactive) | > 100 µM (inactive) | > 100 µM (inactive) | > 100 | > 100 µM (inactive) | > 100 µM (inactive) | – | > 100 µM (inactive) | > 100 µM (inactive) | > 100 µM (inactive) | > 100 µM (inactive) | > 100 µM (inactive) | > 100 µM (inactive) | > 100 µM (inactive) | > 100 µM (inactive) | > 100 µM (inactive) | – | > 100 µM (inactive)
5 | Cc1ccn2c(=O)cc(CN3CCOCC3)nc2c1 | > 100 µM (inactive) | > 100 µM (inactive) | > 100 µM (inactive) | > 100 µM (inactive) | > 100 µM (inactive) | > 100 | > 100 µM (inactive) | > 100 µM (inactive) | > 100 µM (inactive) | > 100 µM (inactive) | > 100 µM (inactive) | > 100 µM (inactive) | > 100 µM (inactive) | > 100 µM (inactive) | > 100 µM (inactive) | > 100 µM (inactive) | – | > 100 µM (inactive) | > 100 µM (inactive) | > 100 µM (inactive)
6 | O=C1SC(c2ccccc2)(c2ccccc2)c2ccccc21 | 66.8 µM (inactive) | > 100 µM (inactive) | > 100 µM (inactive) | > 100 µM (inactive) | > 100 µM (inactive) | > 100 | – | > 100 µM (inactive) | 69.7 µM (inactive) | 74.5 µM (inactive) | 57.7 µM (inactive) | > 100 µM (inactive) | 94.6 µM (inactive) | > 100 µM (inactive) | > 100 µM (inactive) | 68.4 µM (inactive) | 44.1 µM (inactive) | 45.5 µM (inactive) | – | –
7 | Nc1ccc(/N=N/c2c(S(=O)(=O)O)cc3ccccc3c2S(=O)(=O)O)cc1 | > 100 µM (inactive) | > 100 µM (inactive) | > 100 µM (inactive) | > 100 µM (inactive) | > 100 µM (inactive) | > 100 | > 100 µM (inactive) | > 100 µM (inactive) | > 100 µM (inactive) | > 100 µM (inactive) | > 100 µM (inactive) | > 100 µM (inactive) | 34.8 µM (inactive) | – | > 100 µM (inactive) | > 100 µM (inactive) | > 100 µM (inactive) | – | > 100 µM (inactive) | –
8 | COC1CC(OC2C(C)OC(OC3C(C)OC(OC4C(C)OC(O[C@H]5CC[C@@]6(C)C(=CC[C@]7(O)[C@@H]6C[C@@H](O)[C@@]6(C)[C@]7(O)CC[C@@]6(O)C(C)=O)C5)CC4OC)CC3OC)CC2OC)OC(C)C1O (some centres undefined) | > 12.5 µM (inactive) | > 12.5 µM (inactive) | > 12.5 µM (inactive) | > 12.5 µM (inactive) | > 12.5 µM (inactive) | > 12.5 | > 12.5 µM (inactive) | > 12.5 µM (inactive) | – | > 12.5 µM (inactive) | > 12.5 µM (inactive) | > 12.5 µM (inactive) | > 12.5 µM (inactive) | > 12.5 µM (inactive) | > 12.5 µM (inactive) | > 12.5 µM (inactive) | – | > 12.5 µM (inactive) | > 12.5 µM (inactive) | > 12.5 µM (inactive)
